Experimental data taken from the supplement of paper PMC10307832.

Legend:
Experiment in all cases: relative viability (nuclei count vs DMSO), 5 days (fraction); higher = more cells survive
Tivantinib + Dasatinib = compound: O=C1NC(=O)[C@@H](c2cn3c4c(cccc24)CCC3)[C@@H]1c1c[nH]c2ccccc12 [Tivantinib] + Cc1nc(Nc2ncc(C(=O)Nc3c(C)cccc3Cl)s2)cc(N2CCN(CCO)CC2)n1 [Dasatinib] (partner 0.075 µM)
Outline: (§1)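 Nuclei were stained with Hoechst during a one-step fixation (final 0.05% Triton X-100, 1% formaldehyde, 1 ug/ml Hoechst) carried out 5 days after dosing, then counted on 4× images. The cells, lung cancer lines in 1536-well plates, had been dosed by pin tool the day after seeding with one drug alone or a fixed anchor-drug dose plus five library-drug doses (not always all listed) in √10 steps. Relative viability is the nuclei count in treated wells divided by that in vehicle wells, and each value is the median of duplicate plates.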

Crenolanib + Decitabine = compound: CC1(COc2ccc3c(c2)ncn3-c2ccc3cccc(N4CCC(N)CC4)c3n2)COC1 [Crenolanib] + Nc1ncn([C@H]2C[C@H](O)[C@@H](CO)O2)c(=O)n1 [Decitabine] (partner 2 µM)
Outline: as §1

Tivantinib + Luminespib = compound: O=C1NC(=O)[C@@H](c2cn3c4c(cccc24)CCC3)[C@@H]1c1c[nH]c2ccccc12 [Tivantinib] + CCNC(=O)c1noc(-c2cc(C(C)C)c(O)cc2O)c1-c1ccc(CN2CCOCC2)cc1 [Luminespib] (partner 0.01 µM)
Outline: as §1

Crenolanib + Bortezomib = compound: CC1(COc2ccc3c(c2)ncn3-c2ccc3cccc(N4CCC(N)CC4)c3n2)COC1 [Crenolanib] + CC(C)C[C@H](NC(=O)[C@H](Cc1ccccc1)NC(=O)c1cnccn1)B(O)O [Bortezomib] (partner 0.002 µM)
Outline: as §1

| Cell Line | relative viability (Tivantinib + Dasatinib; first compound 0.01 µM) | relative viability (Tivantinib + Dasatinib; first compound 0.03162 µM) | relative viability (Tivantinib + Dasatinib; first compound 0.1 µM) | relative viability (Tivantinib + Dasatinib; first compound 0.3162 µM) | relative viability (Crenolanib + Decitabine; first compound 0.01 µM) | relative viability (Crenolanib + Decitabine; first compound 0.03162 µM) | relative viability (Crenolanib + Decitabine; first compound 0.1 µM) | relative viability (Crenolanib + Decitabine; first compound 0.3162 µM) | relative viability (Crenolanib + Decitabine; first compound 1 µM) | relative viability (Tivantinib + Luminespib; first compound 0.01 µM) | relative viability (Tivantinib + Luminespib; first compound 0.03162 µM) | relative viability (Tivantinib + Luminespib; first compound 0.1 µM) | relative viability (Tivantinib + Luminespib; first compound 0.3162 µM) | relative viability (Crenolanib + Bortezomib; first compound 0.01 µM) | relative viability (Crenolanib + Bortezomib; first compound 0.03162 µM) | relative viability (Crenolanib + Bortezomib; first compound 0.1 µM) | relative viability (Crenolanib + Bortezomib; first compound 0.3162 µM) | relative viability (Crenolanib + Bortezomib; first compound 1 µM) |
| --- | --- | --- | --- | --- | --- | --- | --- | --- | --- | --- | --- | --- | --- | --- | --- | --- | --- | --- |
| NCI-H1650 | 0.41 | 0.289 | 0.276 | 0.313 | 0.373 | 0.377 | 0.455 | 0.322 | 0.343 | 0.203 | 0.191 | 0.203 | 0.192 | 0.217 | 0.194 | 0.197 | 0.205 | 0.203 |
| NCI-H1651 | 0.386 | 0.354 | 0.391 | 0.475 | 0.678 | 0.583 | 0.592 | 0.589 | 0.638 | 0.768 | 1.02 | 0.764 | 0.77 | 0.982 | 0.894 | 0.904 | 0.926 | 0.913 |
| NCI-H1666 | 0.765 | 0.785 | 0.77 | 0.742 | 0.757 | 0.576 | 0.663 | 0.692 | 0.806 | 0.963 | 1.05 | 0.944 | 0.939 | 0.9 | 0.711 | 0.858 | 1.01 | 0.667 |
| NCI-H1734 | 0.425 | 0.472 | 0.436 | 0.478 | 0.55 | 0.549 | 0.507 | 0.591 | 0.507 | 0.206 | 0.198 | 0.0957 | 0.191 | 0.979 | 1.09 | 0.919 | 1.22 | 0.93 |
| NCI-H1755 | 0.482 | 0.437 | 0.401 | 0.39 | 0.678 | 0.74 | 0.743 | 0.743 | 0.697 | 0.478 | 0.473 | 0.4 | 0.437 | 1.03 | 0.993 | 1.01 | 0.967 | 0.909 |
| NCI-H1792 | 0.902 | 0.714 | 0.675 | 0.481 | 0.567 | 0.555 | 0.488 | 0.569 | 0.56 | 0.479 | 0.323 | 0.338 | 0.391 | 1.03 | 0.882 | 0.879 | 1.13 | 0.94 |
| NCI-H1915 | 0.305 | 0.277 | 0.294 | 0.334 | 0.26 | 0.275 | 0.275 | 0.247 | 0.264 | 0.883 | 0.775 | 0.722 | 0.765 | 1 | 0.974 | 0.929 | 1.03 | 0.772 |
| NCI-H1975 | 0.357 | 0.372 | 0.276 | 0.281 | 0.376 | 0.475 | 0.412 | 0.375 | 0.349 | 0.197 | 0.307 | 0.17 | 0.218 | 0.5 | 0.39 | 0.359 | 0.385 | 0.295 |
| NCI-H1993 | 0.649 | 0.7 | 1.35 | 0.583 | 0.578 | 0.629 | 0.615 | 0.62 | 0.651 | 1 | 0.822 | 0.421 | 0.56 | 0.82 | 1.11 | 1.04 | 1.06 | 0.994 |
